Assays:
[1] = molecular target: purified human, His-tagged PRC2 complex (Homo sapiens, UniProt O75530+Q15910); assay: Hot Spot HMT assay: inhibition of PRC2 enzymatic activity (transfer of tritiated methyl from SAM to core histone, filter binding); assay type: biochemical; conditions: Inhibition of PRC2-mediated enzymatic activity; 10 nM PRC2 complex, 0.05 mg/ml core histone H3, 1 uM 3H-SAM, 1 hr at 30°C
Method in brief: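 Five-subunit complex (His-EZH2, Flag-EED, His-SUZ12, His-AEBP2, His-RbAp48) at 10 nM with 0.05 mg/ml core histone H3, pH 8 Tris buffer, 1% DMSO; 20 min compound pre-incubation at 30°C. Started with 1 uM [3H]-SAM, 1 hr at 30°C; tritiated H3 counted by scintillation. Compounds diluted from 1.0 µM top concentration.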

[2] = system: PRC2-mediated histone H3 methylation; assay: Tri-Methyl Histone H3 (Lys 27) Sandwich ELISA in Pfeiffer cells: inhibition of PRC2-mediated histone H3 methylation; assay type: cell-based, human; conditions: Homo sapiens; Inhibition of EZH2-mediated histone H3 trimethylation; Pfeiffer cells (EZH2 A677G), 96 hours incubation
Method in brief: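 Pfeiffer DLBCL cells (EZH2 A677G mutant) treated with 3-fold serial dilutions, 1µM to 0.15 nM final, for 96 hours at 37°C. Acid (0.4M HCl) histone extracts, neutralized, assayed by H3K27me3 sandwich ELISA with HRP/TMB read at 450 nm.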

[3] = system: Karpas 422 cells; assay: Karpas 422 cell viability, CTG (Cell Titre Glo) assay; assay type: cell-based, human; conditions: Homo sapiens; Inhibition of proliferation of Karpas 422 cells (EZH2 Y641N); viability measured Day 4, Day 7 or Day 11, time point of the tabulated values not stated
Method in brief: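 Karpas 422 cells (EZH2 Y641N, DLBCL) plated at 1000 cells/well in RPMI with 20% FBS, exposed to compound 10µM down to 1.5nM in 3-fold steps at 37 °C. Viability by CellTiter-Glo on Days 4, 7 and 11; Day 11 plates re-fed with fresh medium and compound on Day 7. IC50 per time point.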

Sequence of purified human, His-tagged PRC2 complex (Q15910 whole entry): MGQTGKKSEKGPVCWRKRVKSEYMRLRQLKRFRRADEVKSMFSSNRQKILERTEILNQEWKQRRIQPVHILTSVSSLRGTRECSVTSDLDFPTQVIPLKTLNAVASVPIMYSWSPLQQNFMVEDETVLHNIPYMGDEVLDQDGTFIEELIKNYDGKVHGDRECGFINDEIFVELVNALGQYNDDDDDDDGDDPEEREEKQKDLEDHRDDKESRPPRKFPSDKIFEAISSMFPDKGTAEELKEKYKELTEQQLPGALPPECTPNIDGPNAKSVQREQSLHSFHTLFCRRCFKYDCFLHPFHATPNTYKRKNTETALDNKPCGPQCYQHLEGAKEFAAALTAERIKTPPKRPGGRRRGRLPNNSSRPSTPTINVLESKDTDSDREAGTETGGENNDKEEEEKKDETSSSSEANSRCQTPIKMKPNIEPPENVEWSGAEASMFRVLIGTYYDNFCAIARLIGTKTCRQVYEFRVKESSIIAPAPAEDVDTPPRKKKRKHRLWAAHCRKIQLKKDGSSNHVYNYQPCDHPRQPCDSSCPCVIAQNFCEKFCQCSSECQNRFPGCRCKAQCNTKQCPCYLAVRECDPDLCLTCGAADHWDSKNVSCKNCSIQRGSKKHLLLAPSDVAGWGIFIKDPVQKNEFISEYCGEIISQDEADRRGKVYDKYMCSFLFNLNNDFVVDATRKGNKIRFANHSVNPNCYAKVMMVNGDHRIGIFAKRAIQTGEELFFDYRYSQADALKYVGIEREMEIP
Sequence of purified human, His-tagged PRC2 complex (O75530 whole entry): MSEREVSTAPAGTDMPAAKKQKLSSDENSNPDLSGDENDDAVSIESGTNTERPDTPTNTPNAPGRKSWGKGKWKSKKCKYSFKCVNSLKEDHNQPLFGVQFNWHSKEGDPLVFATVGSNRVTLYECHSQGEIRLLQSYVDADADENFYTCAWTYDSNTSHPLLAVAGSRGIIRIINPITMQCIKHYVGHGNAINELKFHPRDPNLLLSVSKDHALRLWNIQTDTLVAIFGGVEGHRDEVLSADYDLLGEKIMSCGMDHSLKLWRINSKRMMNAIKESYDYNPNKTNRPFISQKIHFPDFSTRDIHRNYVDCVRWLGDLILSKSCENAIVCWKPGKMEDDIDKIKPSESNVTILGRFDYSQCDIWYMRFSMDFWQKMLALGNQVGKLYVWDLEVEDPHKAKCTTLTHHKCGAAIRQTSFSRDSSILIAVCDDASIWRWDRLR
Sequence of purified human, His-tagged PRC2 complex (Q15022 whole entry partner): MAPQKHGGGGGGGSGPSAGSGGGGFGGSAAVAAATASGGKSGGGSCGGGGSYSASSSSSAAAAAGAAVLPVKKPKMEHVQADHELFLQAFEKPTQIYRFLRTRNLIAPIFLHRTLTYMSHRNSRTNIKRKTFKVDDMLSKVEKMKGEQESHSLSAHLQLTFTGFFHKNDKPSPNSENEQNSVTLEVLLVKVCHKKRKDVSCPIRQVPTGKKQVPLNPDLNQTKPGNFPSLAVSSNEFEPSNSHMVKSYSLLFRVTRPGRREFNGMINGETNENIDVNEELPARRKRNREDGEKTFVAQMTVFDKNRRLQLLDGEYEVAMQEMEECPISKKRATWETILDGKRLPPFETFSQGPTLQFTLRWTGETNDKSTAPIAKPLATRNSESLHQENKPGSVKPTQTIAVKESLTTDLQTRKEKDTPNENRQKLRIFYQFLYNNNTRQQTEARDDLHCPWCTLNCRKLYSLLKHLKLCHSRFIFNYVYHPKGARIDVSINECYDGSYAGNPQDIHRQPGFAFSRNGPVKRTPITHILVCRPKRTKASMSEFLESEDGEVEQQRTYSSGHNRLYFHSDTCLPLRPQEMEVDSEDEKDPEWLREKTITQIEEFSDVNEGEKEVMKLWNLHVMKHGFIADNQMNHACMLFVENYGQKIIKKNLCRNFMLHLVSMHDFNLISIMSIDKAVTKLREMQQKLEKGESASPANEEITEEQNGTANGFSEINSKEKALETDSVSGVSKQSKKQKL
Sequence of purified human, His-tagged PRC2 complex (Q6ZN18 whole entry partner): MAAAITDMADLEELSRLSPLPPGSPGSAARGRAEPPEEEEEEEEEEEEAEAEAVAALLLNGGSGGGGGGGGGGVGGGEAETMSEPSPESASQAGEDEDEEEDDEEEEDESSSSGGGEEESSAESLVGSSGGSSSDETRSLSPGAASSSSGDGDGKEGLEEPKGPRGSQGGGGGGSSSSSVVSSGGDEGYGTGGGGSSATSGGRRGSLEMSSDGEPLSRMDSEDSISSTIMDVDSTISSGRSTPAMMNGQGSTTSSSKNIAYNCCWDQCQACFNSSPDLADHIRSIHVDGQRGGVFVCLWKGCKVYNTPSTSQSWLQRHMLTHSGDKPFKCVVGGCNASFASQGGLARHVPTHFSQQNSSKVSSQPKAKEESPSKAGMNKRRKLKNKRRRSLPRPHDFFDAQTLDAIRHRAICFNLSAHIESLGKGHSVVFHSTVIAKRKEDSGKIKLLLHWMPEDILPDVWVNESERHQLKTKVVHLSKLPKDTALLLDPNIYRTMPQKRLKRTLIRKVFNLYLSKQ
Sequence of purified human, His-tagged PRC2 complex (Q09028 whole entry partner): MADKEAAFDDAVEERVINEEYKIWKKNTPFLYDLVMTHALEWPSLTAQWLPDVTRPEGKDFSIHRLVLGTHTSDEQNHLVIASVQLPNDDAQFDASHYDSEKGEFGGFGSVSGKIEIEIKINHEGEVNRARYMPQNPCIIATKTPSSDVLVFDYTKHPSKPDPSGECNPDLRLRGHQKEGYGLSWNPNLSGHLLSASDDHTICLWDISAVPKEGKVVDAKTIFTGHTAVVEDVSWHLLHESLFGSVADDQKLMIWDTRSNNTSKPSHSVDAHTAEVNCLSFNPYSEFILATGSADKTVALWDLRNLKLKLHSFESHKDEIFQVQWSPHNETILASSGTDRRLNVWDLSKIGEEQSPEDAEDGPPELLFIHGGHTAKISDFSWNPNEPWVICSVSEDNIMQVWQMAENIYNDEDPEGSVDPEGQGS

IC50 [1]	IC50 [2]	IC50 [3]	SMILES
< 0.1 µM	≤ 0.1 µM	≤ 0.25 µM	CN1CCCC1c1ccc(-c2cnc(NCc3c(F)ccc4c3CCO4)n3cc(C#N)nc23)cc1 (stereo not drawn) [Example 160, 5-(((5-fluoro-2,3-dihydrobenzofuran-4-yl)methyl)amino)-8-(4-(1-methylpyrrolidin-2-yl)phenyl)imidazo[1,2-c]pyrimidine-2-carbonitrile]
< 0.1 µM	≤ 0.1 µM	≤ 0.25 µM	CN(C)C(=O)c1ccc(-c2cnc(NCc3c(F)ccc4c3CCO4)n3cc(C#N)nc23)cc1 [Example 180, 4-(2-cyano-5-(((5-fluoro-2,3-dihydrobenzofuran-4-yl)methyl)amino)imidazo[1,2-c]pyrimidin-8-yl)-N,N-dimethylbenzamide]
0.1 to 0.5 µM	0.1 to 0.5 µM	≤ 0.25 µM	Cc1nc(-c2cnc(NCc3c(F)ccc4c3CCO4)n3cc(C#N)nc23)c(C)s1 [Example 145, 8-(2,5-dimethylthiazol-4-yl)-5-(((5-fluoro-2,3-dihydrobenzofuran-4-yl)methyl)amino)imidazo[1,2-c]pyrimidine-2-carbonitrile]
0.1 to 0.5 µM	0.1 to 0.5 µM	0.25 to 0.5 µM	Cc1cc(S(=O)(=O)C(F)(F)F)ccc1-c1cnc(NCc2c(F)ccc3c2CCO3)n2cc(C#N)nc12 [Example 184, 5-(((5-fluoro-2,3-dihydrobenzofuran-4-yl)methyl)amino)-8-(2-methyl-4-((trifluoromethyl)sulfonyl)phenyl)imidazo[1,2-c]pyrimidine-2-carbonitrile]
< 0.1 µM	0.1 to 0.5 µM	> 0.5 µM	CC(O)Cn1cc(-c2cnc(NCc3c(F)ccc4c3CCO4)n3cc(C#N)nc23)cn1 (stereo not drawn) [Example 179, 5-(((5-fluoro-2,3-dihydrobenzofuran-4-yl)methyl)amino)-8-(1-(2-hydroxypropyl)-1H-pyrazol-4-yl)imidazo[1,2-c]pyrimidine-2-carbonitrile]
< 0.1 µM	0.1 to 0.5 µM	0.25 to 0.5 µM	N#Cc1cn2c(NCc3c(F)ccc4c3CCO4)ncc(-c3ccccc3C#N)c2n1 [Example 187, 8-(2-cyanophenyl)-5-(((5-fluoro-2,3-dihydrobenzofuran-4-yl)methyl)amino)imidazo[1,2-c]pyrimidine-2-carbonitrile]
< 0.1 µM	0.1 to 0.5 µM	≤ 0.25 µM	CN(C)S(=O)(=O)c1ccc(-c2cnc(NCc3c(F)ccc4c3CCO4)n3cc(C#N)nc23)cc1 [Example 58, 4-(2-cyano-5-(((5-fluoro-2,3-dihydrobenzofuran-4-yl)methyl)amino)imidazo[1,2-c]pyrimidin-8-yl)-N,N-dimethylbenzenesulfonamide]
< 0.1 µM	0.1 to 0.5 µM	≤ 0.25 µM	CN(C)CCc1cccc(-c2cnc(NCc3c(F)ccc4c3CCO4)n3cc(C#N)nc23)c1 [Example 217, 8-(3-(2-(dimethylamino)ethyl)phenyl)-5-(((5-fluoro-2,3-dihydrobenzofuran-4-yl)methyl)amino)imidazo[1,2-c]pyrimidine-2-carbonitrile]
< 0.1 µM	≤ 0.1 µM	≤ 0.25 µM	N#Cc1cn2c(NCc3c(F)ccc4c3CCO4)ncc(-c3ccc(CN4CCCC4)cc3)c2n1 [Example 74, 5-(((5-fluoro-2,3-dihydrobenzofuran-4-yl)methyl)amino)-8-(4-(pyrrolidin-1 - ylmethyl)phenyl)imidazo[1,2-c]pyrimidine-2-carbonitrile]
< 0.1 µM	0.1 to 0.5 µM	0.25 to 0.5 µM	N#Cc1cn2c(NCc3c(F)ccc4c3CCO4)ncc(-c3ccc(C4CCCO4)cc3)c2n1 (stereo not drawn) [Example 162, 5-(((5-fluoro-2,3-dihydrobenzofuran-4-yl)methyl)amino)-8-(4-(tetrahydrofuran-2-yl)phenyl)imidazo[1,2-c]pyrimidine-2-carbonitrile]
0.1 to 0.5 µM	> 0.5 µM	0.25 to 0.5 µM	Cc1ccc(-c2cnc(NCc3c(F)ccc4c3CCO4)n3cc(C#N)nc23)cc1 [Example 175, 5-(((5-fluoro-2,3-dihydrobenzofuran-4-yl)methyl)amino)-8-(p-tolyl)imidazo[1,2-c]pyrimidine-2-carbonitrile]
0.1 to 0.5 µM	0.1 to 0.5 µM	0.25 to 0.5 µM	COCCOc1ccc(-c2cnc(NCc3c(F)ccc4c3CCO4)n3cc(C#N)nc23)c(C)c1 [Example 206, 5-(((5-fluoro-2,3-dihydrobenzofuran-4-yl)methyl)amino)-8-(4-(2-methoxyethoxy)-2-methylphenyl)imidazo[1,2-c]pyrimidine-2-carbonitrile]
< 0.1 µM	0.1 to 0.5 µM	≤ 0.25 µM	CNC(=O)c1ccc(-c2cnc(NCc3c(F)ccc4c3CCO4)n3cc(C#N)nc23)cc1 [Example 186, 4-(2-cyano-5-(((5-fluoro-2,3-dihydrobenzofuran-4-yl)methyl)amino)imidazo[1,2-c]pyrimidin-8-yl)-N-methylbenzamide]
< 0.1 µM	≤ 0.1 µM	≤ 0.25 µM	CN(C)Cc1cc(F)c(-c2cnc(NCc3c(F)ccc4c3CCO4)n3cc(C#N)nc23)cc1F [Example 39, 8-(4-((dimethylamino)methyl)-2,5-difluorophenyl)-5-(((5-fluoro-2,3-dihydrobenzofuran-4-yl)methyl)amino)imidazo[1,2-c]pyrimidine-2-carbonitrile]
0.1 to 0.5 µM	> 0.5 µM	0.25 to 0.5 µM	CN(C)c1ccc(-c2cnc(NCc3c(F)ccc4c3CCO4)n3cc(C#N)nc23)cn1 [Example 60, 8-(6-(dimethylamino)pyridin-3-yl)-5-(((5-fluoro-2,3-dihydrobenzofuran-4-yl)methyl)amino)imidazo[1,2-c]pyrimidine-2-carbonitrile]
< 0.1 µM	≤ 0.1 µM	≤ 0.25 µM	N#Cc1cn2c(NCc3c(F)ccc4c3CCO4)ncc(-c3ccc(S(N)(=O)=O)cc3)c2n1 [Example 47, 4-(2-cyano-5-(((5-fluoro-2,3-dihydrobenzofuran-4-yl)methyl)amino)imidazo[1,2-c]pyrimidin-8-yl)benzenesulfonamide]
0.1 to 0.5 µM	> 0.5 µM	≤ 0.25 µM	COC(=O)c1ccc(-c2cnc(NCc3c(F)ccc4c3CCO4)n3cc(C#N)nc23)cc1 [Example 167, methyl 4-(2-cyano-5-(((5-fluoro-2,3-dihydrobenzofuran-4-yl)methyl)amino)imidazo[1,2-c]pyrimidin-8-yl)benzoate]
0.1 to 0.5 µM	≤ 0.1 µM	≤ 0.25 µM	N#Cc1cn2c(NCc3c(F)ccc4c3CCO4)ncc(-c3ccc(C4CCCN4)cc3)c2n1 (stereo not drawn) [Example 204, 5-(((5-fluoro-2,3-dihydrobenzofuran-4-yl)methyl)amino)-8-(4-(pyrrolidin-2-yl)phenyl)imidazo[1,2-c]pyrimidine-2-carbonitrile]
0.1 to 0.5 µM	> 0.5 µM	> 0.5 µM	Cn1cccc(-c2cnc(NCc3c(F)ccc4c3CCO4)n3cc(C#N)nc23)c1=O [Example 156, 5-(((5-fluoro-2,3-dihydrobenzofuran-4-yl)methyl)amino)-8-(1-methyl-2-oxo-1,2-dihydropyridin-3-yl)imidazo[1,2-c]pyrimidine-2-carbonitrile]
0.1 to 0.5 µM	0.1 to 0.5 µM	0.25 to 0.5 µM	N#Cc1cn2c(NCc3c(F)ccc4c3CCO4)ncc(-c3cnn(CC4CCOC4)c3)c2n1 (stereo not drawn) [compound 154]
< 0.1 µM	≤ 0.1 µM	≤ 0.25 µM	Cc1cc(CN(C)C)ncc1-c1cnc(NCc2c(F)ccc3c2CCO3)n2cc(C#N)nc12 [Example 195, 8-(6-((dimethylamino)methyl)-4-methylpyridin-3-yl)-5-(((5-fluoro-2,3-dihydrobenzofuran-4-yl)methyl)amino)imidazo[1,2-c]pyrimidine-2-carbonitrile]
0.1 to 0.5 µM	0.1 to 0.5 µM	≤ 0.25 µM	N#Cc1cn2c(NCc3c(F)ccc4c3CCO4)ncc(-c3cnn(CCO)c3)c2n1 [Example 182, 5-(((5-fluoro-2,3-dihydrobenzofuran-4-yl)methyl)amino)-8-(1-(2-hydroxyethyl)-1H-pyrazol-4-yl)imidazo[1,2-c]pyrimidine-2-carbonitrile]
< 0.1 µM	0.1 to 0.5 µM	0.25 to 0.5 µM	N#Cc1cn2c(NCc3c(F)ccc4c3CCO4)ncc(-c3cc[nH]c(=O)c3)c2n1 [Example 218, 5-(((5-fluoro-2,3-dihydrobenzofuran-4-yl)methyl)amino)-8-(2-oxo-1,2-dihydropyridin-4-yl)imidazo[1,2-c]pyrimidine-2-carbonitrile]

SMILES	IC50 [1]	IC50 [2]	IC50 [3]
CCOP(=O)(OCC)c1ccc(-c2cnc(NCc3c(F)ccc4c3CCO4)n3cc(C#N)nc23)cc1 [Example 164, diethyl (4-(2-cyano-5-(((5-fluoro-2,3-dihydrobenzofuran-4-yl)methyl)amino)imidazo[1,2-c]pyrimidin-8-yl)phenyl)phosphonate]	< 0.1 µM	≤ 0.1 µM	≤ 0.25 µM
